Data as given in patent US20240174618A1, “SUBSTITUTED (2-HETEROARYLOXYPHENYL)SULFONATES, SALTS THEREOF AND THEIR USE AS HERBICIDAL AGENTS” (Bayer Aktiengesellschaft, priority 2021, published 2024).

How the values were obtained:
Assay type in all cases: in vivo
Zea mays (ZEAMX) [1] = assay: D. Pre-emergence effect on useful plants, ZEAMX; settings: useful plant
Excerpt: (§1) Seeds of monocotyledonous and dicotyledonous weed plants and crop plants were placed in plastic or organic planting pots and covered with soil. The compounds of the invention, formulated in the form of wettable powders (WP) or as emulsion concentrates (EC), were then applied to the surface of the covering soil as aqueous suspension or emulsion with addition of 0.5% additive at a water application rate equivalent to 600 l/ha (converted). After the treatment, the pots were placed in a greenhouse and kept under good growth conditions for the test plants. After about 3 weeks, the efficacy of the preparations was scored visually in comparison with untreated controls as percentages. For example, • 100% efficacy=plants have died, • 0% efficacy=like untreated control plants.
Tables D1a to D5b below show the effects of selected compounds of the general formula (I) according to table 1 on various useful plants at an application rate corresponding to 320 g/ha or less, which were obtained by the experimental procedure mentioned above.

[2] = system: Amaranthus retroflexus (AMARE); assay: C. Herbicidal pre-emergence efficacy, AMARE; settings: scored after about 3 weeks
In short: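 Pre-emergence test: formulated compounds sprayed as aqueous suspension or emulsion with 0.5% additive at 600 l/ha onto soil covering sown seeds, at rates corresponding to 320 g/ha or less. After about 3 weeks in greenhouse, efficacy scored visually as percent versus untreated controls (100% = plants dead).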

[3] = system: Digitaria sanguinalis (DIGSA); assay: E. Herbicidal post-emergence efficacy, DIGSA
Procedure: (§2) Seeds of monocotyledonous and dicotyledonous weeds and crop plants were placed in sandy loam in plastic or organic planting pots, covered with soil and cultivated in a greenhouse under controlled growth conditions. 2 to 3 weeks after sowing, the test plants were treated at the one-leaf stage. The compounds of the invention, formulated in the form of wettable powders (WP) or as emulsion concentrates (EC), were then sprayed onto the green parts of the plants as aqueous suspension or emulsion with addition of 0.5% additive at a water application rate of 600 l/ha (converted). After the test plants had been kept in the greenhouse under optimum growth conditions for about 3 weeks, the activity of the preparations was rated visually in comparison to untreated controls.
(§3) For example, • 100% efficacy=plants have died, • 0% action=like untreated control plants.
Tables E1a to E12b below show the effects of selected compounds of the general formula (I) according to table 1 on various harmful plants at an application rate corresponding to 320 g/ha or less, which were obtained by the experimental procedure mentioned above.

Veronica persica (VERPE) [4] = assay: C. Herbicidal pre-emergence efficacy, VERPE; settings: scored after about 3 weeks
Excerpt: as §1
(§4) Tables C1a to C14b below show the effects of selected compounds of the general formula (I) according to table 1 on various harmful plants at an application rate corresponding to 320 g/ha or less, which were obtained by the experimental procedure mentioned above.

Veronica persica (VERPE) [5] = assay: E. Herbicidal post-emergence efficacy, VERPE
In short: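 Visual scoring against untreated plants was done roughly 3 weeks after spraying (0% = no effect, 100% = plants dead). Spray application at 320 g/ha or lower, 600 l/ha water with 0.5% additive, was made onto green parts of one-leaf-stage greenhouse plants grown 2-3 weeks in sandy loam.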

Zea mays (ZEAMX) [6] = assay: F. Post-emergence effect on useful plants, ZEAMX; settings: useful plant
Procedure: as §2, §3
Tables F1a to F4 below show the effects of selected compounds of the general formula (I) according to table 1 on various useful plants at an application rate corresponding to 320 g/ha or less, which were obtained by the experimental procedure mentioned above.

[7] = system: Matricaria inodora (MATIN); assay: C. Herbicidal pre-emergence efficacy, MATIN; settings: scored after about 3 weeks
Excerpt: as §1, §4

[8] = system: Digitaria sanguinalis (DIGSA); assay: B. Herbicidal post-emergence efficacy, DIGSA; settings: rated visually after about 3 weeks
In short: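 Post-emergence foliar spray, at application rates of 1280 g/ha or less, on one-leaf-stage plants 2–3 weeks post-sowing, using aqueous WP or EC suspensions with 0.5% additive at 600 L/ha. Visual percent efficacy relative to untreated plants scored roughly 3 weeks later in the greenhouse.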

[9] = system: Alopecurus myosuroides (ALOMY); assay: B. Herbicidal post-emergence efficacy, ALOMY; settings: 1280 g/ha, rated visually after about 3 weeks
Procedure: Seeds of mono- and dicotyledonous weed plants were placed in plastic pots in sandy loam soil (doubly sown with in each case one species of mono- or dicotyledonous weed plants per pot), covered with soil and cultivated in a greenhouse under controlled growth conditions. 2 to 3 weeks after sowing, the test plants were treated at the one-leaf stage. The compounds of the invention, formulated in the form of wettable powders (WP) or as emulsion concentrates (EC), were applied onto the green parts of the plants as aqueous suspension or emulsion with addition of 0.5% additive at a water application rate of 600 liters per hectare (converted). After the test plants had been kept in the greenhouse under optimum growth conditions for about 3 weeks, the activity of the preparations was rated visually in comparison to untreated controls.
For example, • 100% efficacy=plants have died, • 0% efficacy=like untreated control plants
Tables B1a to B12c below show the effects of selected inventive compounds of the general formula (I) according to table 1 on various harmful plants at an application rate corresponding to 1280 g/ha or less, which were obtained by the experimental procedure mentioned above.

SMILES | Pre-emergence efficacy against ZEAMX in % (Zea mays (ZEAMX) [1]; application rate 80 g/ha) | Pre-emergence efficacy against ZEAMX in % (Zea mays (ZEAMX) [1]; application rate 320 g/ha) | Pre-emergence efficacy against AMARE ([2]; 80 g/ha) | Pre-emergence efficacy against AMARE ([2]; 320 g/ha) | Post-emergence efficacy against DIGSA in % ([3]; application rate 320 g/ha) | Pre-emergence efficacy against VERPE (Veronica persica (VERPE) [4]; 320 g/ha) | Post-emergence efficacy against VERPE in % (Veronica persica (VERPE) [5]; application rate 80 g/ha) | Post-emergence efficacy against VERPE in % (Veronica persica (VERPE) [5]; application rate 320 g/ha) | Post-emergence efficacy against ZEAMX in % (Zea mays (ZEAMX) [6]; application rate 80 g/ha) | Post-emergence efficacy against ZEAMX in % (Zea mays (ZEAMX) [6]; application rate 320 g/ha) | Pre-emergence efficacy against MATIN ([7]; 320 g/ha) | Post-emergence efficacy against DIGSA in % ([8]; 1280 g/ha) | Post-emergence efficacy against DIGSA in % ([3]; application rate 80 g/ha) | Post-emergence efficacy against ALOMY in % [9] | Post-emergence efficacy against DIGSA in % ([8]; 320 g/ha) | Pre-emergence efficacy against VERPE (Veronica persica (VERPE) [4]; 80 g/ha) | Pre-emergence efficacy against MATIN ([7]; 80 g/ha)
O=S(=O)(CCl)Oc1ccccc1Oc1ncc(Cl)cn1 [Example I-9] | 0% | 20% | 100% | 100% | 80% | 100% | 80% | 90% | 20% | 20% | 80% | – | – | – | – | – | –
Cc1cccc(OS(=O)(=O)CCCCl)c1Oc1ncc(Cl)cn1 [Example I-12] | 20% | – | 100% | 100% | – | 90% | 100% | 100% | – | – | – | – | – | – | – | – | –
O=S(=O)(CCCCl)Oc1cccc(F)c1Oc1ncc(Cl)cn1 [Example I-13] | 10% | 20% | – | 100% | – | 90% | – | 90% | 20% | 20% | – | 90% | – | – | – | – | –
O=S(=O)(CCCCCl)Oc1ccccc1Oc1ncc(Cl)cn1 [Example I-15] | – | – | 90% | 100% | 90% | 80% | 90% | 100% | – | – | – | – | 80% | – | – | – | –
CCS(=O)(=O)Oc1ccccc1Oc1ncc(Cl)cn1 [Example I-16] | – | – | – | – | – | – | – | – | – | – | – | 90% | – | 90% | – | – | –
CCCCCS(=O)(=O)Oc1ccccc1Oc1ncc(Cl)cn1 [Example I-24] | 0% | 0% | 100% | 100% | – | 90% | 90% | 100% | 20% | – | – | 90% | – | – | 90% | – | –
CC(C)CCS(=O)(=O)Oc1ccccc1Oc1ncc(Cl)cn1 [Example I-25] | 0% | – | 100% | 100% | – | 100% | 90% | 100% | – | – | – | 100% | – | – | 90% | 80% | –
Cc1cccc(Oc2ncc(Cl)cn2)c1OS(=O)(=O)CCCC(F)(F)F [Example I-28, 2-[(5-Chloropyrimidin-2-yl)oxy]-6-methylphenyl 4,4,4-trifluorobutane-1-sulfonate] | – | – | – | – | – | – | – | – | – | – | – | 90% | – | – | – | – | –
Cc1cccc(Oc2ncc(Cl)cn2)c1OS(=O)(=O)CCC(F)(F)F [Example I-29] | – | – | – | – | – | – | – | – | – | – | – | 100% | – | – | – | – | –
O=S(=O)(CCC(F)(F)F)Oc1c(Br)cccc1Oc1ncc(Cl)cn1 [Example I-31] | – | – | – | – | – | – | – | – | – | – | – | 90% | – | – | – | – | –
O=S(=O)(CCCC(F)(F)F)Oc1c(Cl)cccc1Oc1ncc(Br)cn1 [Example I-34] | – | – | 100% | 100% | 90% | 100% | 100% | 100% | – | – | – | 100% | – | – | – | 80% | –
C=CCS(=O)(=O)Oc1ccccc1Oc1ncc(Cl)cn1 [Example I-36] | 0% | – | – | 100% | – | – | 80% | 100% | 0% | 0% | – | – | – | – | – | – | –
O=S(=O)(CCC(F)(F)F)Oc1c(Cl)cccc1Oc1ncc(Cl)cn1 [Example I-38] | – | – | 100% | 100% | 90% | 100% | 100% | 100% | – | – | 80% | 90% | – | – | – | 100% | 80%
O=S(=O)(CCCC(F)(F)F)Oc1c(Cl)cccc1Oc1ncc(Cl)cn1 [Example I-39] | 0% | – | 100% | 100% | 100% | 100% | 100% | 100% | 20% | – | 80% | 90% | 90% | – | – | 100% | –
O=S(=O)(CCC(F)(F)F)Oc1c(Br)cccc1Oc1ncc(F)cn1 [Example I-43] | 0% | – | 100% | 100% | – | – | 100% | 100% | 0% | 0% | 80% | – | – | – | – | – | –
C=CCCS(=O)(=O)Oc1c(F)cccc1Oc1ncc(Cl)cn1 [Example I-50] | 0% | – | 100% | 100% | – | – | 90% | 100% | – | – | – | 90% | – | – | – | – | –
COCCS(=O)(=O)Oc1c(F)cccc1Oc1ncc(Cl)cn1 [Example I-52] | 0% | – | 100% | 100% | – | – | 100% | 100% | 0% | 0% | – | 90% | – | – | – | – | –
O=S(=O)(CCCC(F)(F)C(F)(F)F)Oc1c(F)cccc1Oc1ncc(Cl)cn1 [Example I-68] | 10% | – | 100% | 100% | 90% | 90% | 100% | 100% | – | – | 100% | 100% | – | – | 90% | 90% | 90%
O=S(=O)(CCC(F)=C(F)F)Oc1c(F)cccc1Oc1ncc(Cl)cn1 [Example I-70] | – | – | 100% | 100% | 90% | 100% | 100% | 100% | 20% | – | – | – | – | – | – | 80% | –
N#Cc1cccc(Oc2ncc(Cl)cn2)c1OS(=O)(=O)CCCC(F)(F)F [Example I-81] | 0% | – | 100% | 100% | 90% | 100% | 100% | 100% | – | – | – | – | 80% | – | – | 100% | –
